Measurements published in PubChem BioAssay (NCI).
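Protocol summary: plate cells (96-well), add compound at 5 concentrations, incubate 48 h, interpolate endpoints linearly. The concentration for full growth arrest is given as TGI.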

Columns and labels:
Experiment in all cases: inhibition of tumour cell growth, NCI panel, 48 h
SNB-75 CNS = tested on: SNB-75 CNS
IGROV1 ovarian = tested on: IGROV1 ovarian
HOP-92 NSCLC = tested on: HOP-92 NSCLC
SF-539 CNS = tested on: SF-539 CNS
SK-MEL-5 melanoma = tested on: SK-MEL-5 melanoma
SN12C renal = tested on: SN12C renal
UACC-62 melanoma = tested on: UACC-62 melanoma
CAKI-1 renal = tested on: CAKI-1 renal
UO-31 renal = tested on: UO-31 renal
HT29 colon = tested on: HT29 colon
SW-620 colon = tested on: SW-620 colon
PC-3 prostate = tested on: PC-3 prostate
NCI-H460 lung = tested on: NCI-H460 lung
BT-549 breast = tested on: BT-549 breast
HOP-62 NSCLC = tested on: HOP-62 NSCLC
UACC-257 melanoma = tested on: UACC-257 melanoma
SNB-19 CNS = tested on: SNB-19 CNS
A498 renal = tested on: A498 renal
MCF7 breast = tested on: MCF7 breast
NCI-H522 lung = tested on: NCI-H522 lung
HCT-15 colon = tested on: HCT-15 colon
ACHN renal = tested on: ACHN renal
MOLT-4 leukemia = tested on: MOLT-4 leukemia
HCT-116 colon = tested on: HCT-116 colon
MDA-MB-435 = tested on: MDA-MB-435
SF-268 CNS = tested on: SF-268 CNS
786-0 renal = tested on: 786-0 renal
KM12 colon = tested on: KM12 colon
OVCAR-3 ovarian = tested on: OVCAR-3 ovarian
SR leukemia = tested on: SR leukemia
NCI-H23 lung = tested on: NCI-H23 lung
TK-10 renal = tested on: TK-10 renal
MDA-N = tested on: MDA-N
MALME-3M melanoma = tested on: MALME-3M melanoma
SF-295 CNS = tested on: SF-295 CNS
HCC-2998 colon = tested on: HCC-2998 colon
HS 578T breast = tested on: HS 578T breast
M14 melanoma = tested on: M14 melanoma
SK-MEL-28 melanoma = tested on: SK-MEL-28 melanoma
RPMI-8226 leukemia = tested on: RPMI-8226 leukemia
DU-145 prostate = tested on: DU-145 prostate
COLO 205 colon = tested on: COLO 205 colon
OVCAR-4 ovarian = tested on: OVCAR-4 ovarian
OVCAR-5 ovarian = tested on: OVCAR-5 ovarian
RXF 393 renal = tested on: RXF 393 renal
EKVX NSCLC = tested on: EKVX NSCLC
SK-OV-3 ovarian = tested on: SK-OV-3 ovarian
U251 CNS = tested on: U251 CNS
A549 NSCLC = tested on: A549 NSCLC
OVCAR-8 ovarian = tested on: OVCAR-8 ovarian
K-562 leukemia = tested on: K-562 leukemia
CCRF-CEM leukemia = tested on: CCRF-CEM leukemia
HL-60(TB) leukemia = tested on: HL-60(TB) leukemia
SK-MEL-2 melanoma = tested on: SK-MEL-2 melanoma
MDA-MB-231 breast = tested on: MDA-MB-231 breast
LOX IMVI melanoma = tested on: LOX IMVI melanoma
NCI-H226 lung = tested on: NCI-H226 lung

Question: How did the TGI (SNB-75 CNS) turn out when `COC(C)(C)C1=CCC(C)CC1` (stereo not drawn) was run?
Answer: > 100 µM

Question: And the TGI (IGROV1 ovarian)?
Answer: > 100 µM

Question: What about the TGI (HOP-92 NSCLC) of the same molecule?
Answer: > 100 µM

Question: And the TGI (SF-539 CNS)?
Answer: > 100 µM

Question: What about the TGI (SK-MEL-5 melanoma) of the same molecule?
Answer: > 100 µM

Question: What about the TGI (SN12C renal) of the same molecule?
Answer: > 100 µM

Question: And the TGI (UACC-62 melanoma)?
Answer: > 100 µM

Question: What about the TGI (CAKI-1 renal) of the same molecule?
Answer: > 100 µM

Question: What about the TGI (UO-31 renal) of the same molecule?
Answer: > 100 µM

Question: And the TGI (HT29 colon)?
Answer: > 100 µM

Question: And the TGI (SW-620 colon)?
Answer: > 100 µM

Question: And the TGI (PC-3 prostate)?
Answer: > 100 µM

Question: What about the TGI (NCI-H460 lung) of the same molecule?
Answer: > 100 µM

Question: What about the TGI (BT-549 breast) of the same molecule?
Answer: > 100 µM

Question: And the TGI (HOP-62 NSCLC)?
Answer: > 100 µM

Question: What about the TGI (UACC-257 melanoma) of the same molecule?
Answer: > 100 µM

Question: What about the TGI (SNB-19 CNS) of the same molecule?
Answer: > 100 µM

Question: And the TGI (A498 renal)?
Answer: > 100 µM

Question: What about the TGI (MCF7 breast) of the same molecule?
Answer: > 100 µM

Question: And the TGI (NCI-H522 lung)?
Answer: > 100 µM

Question: And the TGI (HCT-15 colon)?
Answer: > 100 µM

Question: What about the TGI (ACHN renal) of the same molecule?
Answer: > 100 µM

Question: And the TGI (MOLT-4 leukemia)?
Answer: > 100 µM

Question: And the TGI (HCT-116 colon)?
Answer: > 100 µM

Question: And the TGI (MDA-MB-435)?
Answer: > 100 µM

Question: And the TGI (SF-268 CNS)?
Answer: > 100 µM

Question: What about the TGI (786-0 renal) of the same molecule?
Answer: > 100 µM

Question: What about the TGI (KM12 colon) of the same molecule?
Answer: > 100 µM

Question: And the TGI (OVCAR-3 ovarian)?
Answer: > 100 µM

Question: What about the TGI (SR leukemia) of the same molecule?
Answer: 78 µM

Question: And the TGI (NCI-H23 lung)?
Answer: > 100 µM

Question: What about the TGI (TK-10 renal) of the same molecule?
Answer: > 100 µM

Question: And the TGI (MDA-N)?
Answer: > 100 µM

Question: What about the TGI (MALME-3M melanoma) of the same molecule?
Answer: > 100 µM

Question: And the TGI (SF-295 CNS)?
Answer: > 100 µM

Question: What about the TGI (HCC-2998 colon) of the same molecule?
Answer: > 100 µM

Question: What about the TGI (HS 578T breast) of the same molecule?
Answer: > 100 µM

Question: What about the TGI (M14 melanoma) of the same molecule?
Answer: > 100 µM

Question: And the TGI (SK-MEL-28 melanoma)?
Answer: > 100 µM

Question: What about the TGI (RPMI-8226 leukemia) of the same molecule?
Answer: > 100 µM

Question: And the TGI (DU-145 prostate)?
Answer: > 100 µM

Question: And the TGI (COLO 205 colon)?
Answer: > 100 µM

Question: And the TGI (OVCAR-4 ovarian)?
Answer: > 100 µM

Question: What about the TGI (OVCAR-5 ovarian) of the same molecule?
Answer: > 100 µM

Question: What about the TGI (RXF 393 renal) of the same molecule?
Answer: > 100 µM

Question: And the TGI (EKVX NSCLC)?
Answer: > 100 µM

Question: What about the TGI (SK-OV-3 ovarian) of the same molecule?
Answer: > 100 µM

Question: And the TGI (U251 CNS)?
Answer: > 100 µM

Question: What about the TGI (A549 NSCLC) of the same molecule?
Answer: > 100 µM

Question: What about the TGI (OVCAR-8 ovarian) of the same molecule?
Answer: > 100 µM

Question: Which results are given for `C=CC(Br)(CBr)CCC(Cl)C(C)C` (stereo not drawn)?
Answer: TGI (SNB-75 CNS): 3.04 µM; TGI (IGROV1 ovarian): 8.43 µM; TGI (HOP-92 NSCLC): 4.72 µM; TGI (SF-539 CNS): 3.84 µM; TGI (SK-MEL-5 melanoma): 3.91 µM; TGI (SN12C renal): 3.19 µM; TGI (UACC-62 melanoma): 2.98 µM; TGI (CAKI-1 renal): 7.52 µM; TGI (UO-31 renal): 3.08 µM; TGI (HT29 colon): 3.17 µM; TGI (SW-620 colon): 3.35 µM; TGI (PC-3 prostate): 14.1 µM; TGI (NCI-H460 lung): 4.3 µM; TGI (BT-549 breast): 2.96 µM; TGI (HOP-62 NSCLC): 3.2 µM; TGI (UACC-257 melanoma): 5.97 µM; TGI (SNB-19 CNS): 6.82 µM; TGI (A498 renal): 27 µM; TGI (MCF7 breast): 3.07 µM; TGI (NCI-H522 lung): 2.8 µM; TGI (K-562 leukemia): 5.4 µM; TGI (ACHN renal): 8.49 µM; TGI (MOLT-4 leukemia): 4.31 µM; TGI (HCT-116 colon): 12 µM; TGI (MDA-MB-435): 3.5 µM; TGI (SF-268 CNS): 3.07 µM; TGI (KM12 colon): 2.95 µM; TGI (OVCAR-3 ovarian): 4.13 µM; TGI (SR leukemia): 2.38 µM; TGI (CCRF-CEM leukemia): 2.64 µM; TGI (NCI-H23 lung): 8.82 µM; TGI (HL-60(TB) leukemia): 2.38 µM; TGI (TK-10 renal): 3.5 µM; TGI (SK-MEL-2 melanoma): 3.92 µM; TGI (MDA-N): 2.8 µM; TGI (MALME-3M melanoma): 3.71 µM; TGI (SF-295 CNS): 3.9 µM; TGI (HCC-2998 colon): 1.52 µM; TGI (HS 578T breast): 8.01 µM; TGI (M14 melanoma): 3.18 µM; TGI (SK-MEL-28 melanoma): 2.98 µM; TGI (MDA-MB-231 breast): 2.79 µM; TGI (DU-145 prostate): 8.69 µM; TGI (COLO 205 colon): 10.2 µM; TGI (LOX IMVI melanoma): 2.46 µM; TGI (OVCAR-4 ovarian): 3.29 µM; TGI (OVCAR-5 ovarian): 5.03 µM; TGI (RXF 393 renal): 3.31 µM; TGI (EKVX NSCLC): 21.8 µM; TGI (SK-OV-3 ovarian): 18.6 µM; TGI (U251 CNS): 3.02 µM; TGI (A549 NSCLC): 18 µM; TGI (NCI-H226 lung): 27.7 µM
